The source of these data is paper PMC10672221, “The Plant Defensin Ppdef1 Is a Novel Topical Treatment for Onychomycosis” (Journal of Fungi, 2023).

Positions of bridges follow the written chain, without caps; N, C: chain ends. No end group written: not given here.

The subject of one data set is C. albicans cells. Description: Propidium iodide uptake in response to antifungal treatment (flow cytometry). In kind it is cell-based, Candida albicans. Particulars: 30 min; for treated cells no longer viable (PI positive): 50 µg/mL; for treated cells no longer viable (PI positive) / treated cells no longer viable / cells killed (PI positive): 30 °C, 1/2 PDB, flow cytometry; for treated cells no longer viable / cells killed (PI positive): 100 µg/mL. The method, then: A culture of C. albicans cells (OD600 = 0.3 in ½ PDB) was prepared. Aliquots of the culture (300 µL) were transferred to 1.5 mL tubes and treated with 3.125, 6.25, 12.5, 25, 50, or 100 µg/mL of Ppdef1, efinaconazole, ciclopirox, terbinafine, or tavaborole. Water or dimethyl sulfoxide (DMSO) was added to the untreated control samples. Propidium iodide (2 µL of 1 mg/mL stock) was also added to each sample, and the cells were incubated for 30 min at 30 °C before they were pelleted using centrifugation, resuspended in 300 µL of PBS and transferred to the wells of a 96-well plate. Cells were assessed for fluorescence using the PI channel on a FACS Canto 2 flow cytometer (BD). Cells with fluorescence of more than 185 rfu were considered positive for PI uptake.

Data set [1] deals with T. rubrum growing on human nail fragments. Description: Cell killing of T. rubrum growing on nail fragments (PrestoBlue). In kind it is cell-based, Trichophyton rubrum. The protocol: Human nail fragments (~2 mm × 2 mm) were sterilized in water at 99 °C for 4 h. A single nail fragment was placed into each well of a 96-well microtiter plate along with 100 µL of sterile water. T. rubrum conidia (100 µL) were added to obtain a final concentration of 1.5 × 10^5 conidia/mL. Control wells were inoculated with water only. Plates were then incubated for 96 h at 28 °C without shaking to allow T. rubrum to colonise the nail material. After the nail fragments were colonised with T. rubrum, they were treated with Ppdef1 or efinaconazole at a final concentration of 100 or 200 µg/mL. Six replicate wells were used per treatment, and two independent replicates were performed. As efinaconazole was dissolved in ethanol, all wells treated with Ppdef1 were adjusted with ethanol to a final concentration of 1% ethanol. Plates were then incubated for 20 h at 28 °C.
After the 20 h incubation, 20 µL of PrestoBlue® (Thermo Fisher, Scoresby, Victoria, Australia) was added to each well, and the mixture was transferred to a black-wall, clear-bottom microplate. […] The reaction was allowed to proceed for 24 h before fluorescence was measured in an M5e spectrophotometer (Molecular Devices, San Jose, CA, USA) using an excitation wavelength of 560 nm and an emission wavelength of 590 nm as described in the manufacturer’s instructions (Thermo Fisher, Scoresby, Victoria, Australia).

A short description of data set [2]: Nail penetration assay (Franz cell nail adaptors). It counts as in vitro ADME, human. To be noted: for maximum level of penetration on any one day: 10 days daily application, efinaconazole 10% as Jublia (maximum on day 8); for applied dose that penetrated the nails on all days, except for terbinafine on Days 7 and 9: efinaconazole 10%; for average penetration per day at Days 7-10: Ppdef1 1% (six replicates), terbinafine 1% in same vehicle (four replicates). The protocol: Nail penetration assays were conducted essentially as described by Hui et al.. Human fingernail clippings (minimum size: 6.5 mm × 6.5 mm) were hydrated by placing them on folded Kimwipe tissues soaked in 3 mL of phosphate-buffered saline (PBS, pH 7.4) for 3 h at 26 °C. After hydration, nails were placed in plastic Franz cell nail adaptors (Perme Gear, Hellerton, PA, USA) with cotton wool (20 mg ± 2 mg) pre-soaked with 100 µL of phosphate-buffered saline with Tween 0.05% (PBST, pH 7.4) placed underneath the nail. Nails were sealed into the adaptors with silicone and checked for leaks by applying 10 µL of water to the top of the nail for at least 20 min (RT). Ppdef1 drug product (10 µL; 1% Ppdef1 in 50 mM acetate buffer, pH 4.0, 20% isopropanol, 20% propylene glycol), terbinafine (1% in 50 mM acetate buffer, pH 4.0, 20% isopropanol, 20% propylene glycol), or efinaconazole (formulated as Jublia (Valeant)) was applied to the top of the nail, and nails were incubated at 26 °C for 16 h in a Petri dish. A moist Kimwipe was added to the Petri dish to maintain humidity. After 16 h, the cotton wool was removed from the underside of the nail and set aside for analysis. The top of the nail was washed to collect excess test compound that had not penetrated the nail. First, a dry cotton swab was used to collect any excess liquid on the nail. A second swab soaked in 100 µL of water was then wiped over the top of the nail. An additional dry swab was used to collect any remaining liquid. A fresh piece of cotton wool soaked in 100 µL PBST was added to the underside of the nail. The nail was incubated at 26 °C for 1 h to allow for rehydration. Additional test solution (10 µL) was applied, and the process was repeated daily for 10 days. To quantify the amount of test item that had penetrated the nail, cotton wool removed from the underside of the nail was washed twice with 500 mM CaCl2 (200 µL) and then once with 0.1% TFA (200 µL). The cotton wool was incubated with the wash solution for 10 min at 26 °C for each wash. Cotton wool washes were pooled and analysed using RP-HPLC (300SB-C8 analytical column attached to a 1200 series HPLC (Agilent, Santa Clara, CA, USA)). Ethics approval for use of the nail clippings was granted by the La Trobe University Human Ethics Committee for the collection of nail clippings (approval number: HEC18414).

The conditions of data set [3]: systemic (oral), after a 12 week treatment; cited from earlier work. From the text: These infections are hard to treat, can be painful, and have a cosmetic impact on the patient. Current topical treatments for onychomycosis require daily or weekly application for 48 weeks, and even these exhaustive treatment regimens produce low complete cure rates. Until 2014, […]® and its generic equivalents, with the active ingredient ciclopirox, were the only prescription strength topical onychom ... || Several systemic (oral) treatments have been approved for the treatment of onychomycosis. […] The FDA reported in its review of efinaconazole (Center for Drug Evaluation and Research; […] Fungicidal activity in the presence of keratin is hypothesised to correlate with the clinical efficacy for the topical onychomycosis products, ciclopirox and efinaconazole. The complete cu ...

The mark [4] stands for this setting: terbinafine 1%, four replicates.
The mark [5] stands for this setting: 10 µL daily, 26 °C, RP-HPLC, average of six replicates.
Setting [6] is: 10 µL daily, 26 °C, RP-HPLC, six replicates.

On to `Cc1cc(C2CCCCC2)n(O)c(=O)c1` [ciclopirox], for which, in the data set on C. albicans cells, the “treated cells no longer viable (PI positive)” value is on record as ~ 20% and the “treated cells no longer viable / cells killed (PI positive)” value is 58.7%.
Take `C=C1CCN([C@H](C)[C@](O)(Cn2cncn2)c2ccc(F)cc2F)CC1` [efinaconazole]: the “hyphal biomass killed relative to the untreated control” value in data set [1] (200 µg/mL, keratin as sole nutrient source, 1% ethanol, 28 °C, PrestoBlue) was “little impact”. For the same compound, the “decrease in viable fungi” value in data set [1] (either concentration (100 or 200 µg/mL)) was “did not cause a significant decrease”. Also, the “maximum level of penetration on any one day” value in data set [2] (setting [4]) is 2.2%. Moreover, the “average penetration per day on Days 1-7, 9, and 10” value in data set [2] (efinaconazole 10% (Jublia), four replicates) is recorded as “approximately 0.5%”. Further, the “applied dose that penetrated the nails on all days, except for terbinafine on Days 7 and 9” value in data set [2] (terbinafine 1%) is listed as “less than 5%”. In the data set with C. albicans cells, the “treated cells no longer viable (PI positive)” value was “no significant cell death”. The “cell death (PI uptake)” value in the data set on C. albicans cells (any of the tested concentrations (3.125-100 µg/mL)) was “did not induce a significant cell death”.
As to `CCC(C)n1ncn(-c2ccc(N3CCN(c4ccc(OCC5COC(Cn6cncn6)(c6ccc(Cl)cc6Cl)O5)cc4)CC3)cc2)c1=O` (stereo not shown) [itraconazole], the cure rate in data set [3] is on record as 14%.
As to `OB1OCc2cc(F)ccc21` [tavaborole], in the data set with C. albicans cells, the “treated cells no longer viable (PI positive)” value was “no significant cell death” and the “treated cells no longer viable / cells killed (PI positive)” value was “less than 25%”.
For `CN(C/C=C/C#CC(C)(C)C)Cc1cccc2ccccc12` [terbinafine], in data set [2] (10 µL daily, 26 °C, RP-HPLC), the “average penetration per day at Days 7-10” value was determined as 3.8%. For the same compound, the “maximum level of penetration on any one day” value in data set [2] (setting [4]) is listed as 7.0%. Moreover, in data set [2] (terbinafine 1%), the “applied dose that penetrated the nails on Days 7 and 9” value is given as “less than 10%”; the “applied dose that penetrated the nails on all days, except for terbinafine on Days 7 and 9” value is recorded as “less than 5%”. The “penetration observed on most days” value in data set [2] (terbinafine 1%, daily for 10 days, four replicates) is listed as “approximately 3.0%”. Further, in the data set with C. albicans cells, the “treated cells no longer viable (PI positive)” value is recorded as “no significant cell death” and the “treated cells no longer viable / cells killed (PI positive)” value is reported as “less than 25%”. Also, in data set [3], the cure rate is 38%.
Turning to “AKVCTKPSKFFKGLCGTDGACTTACRKEGLHSGYCQLKGFLNSVCVCRKHC (disulfide 4-51, 15-35, 21-45, 25-47) [Ppdef1]”, the “applied dose that penetrated the nail, first day” value in data set [2] (10 µL applied daily, 26 °C, 16 h, cotton wool under nail, RP-HPLC, 1% Ppdef1 in 50 mM acetate pH 4.0, 20% isopropanol, 20% propylene glycol, average of six replicates) was determined as 13.3%. In data set [2] (setting [5]), the “applied dose that penetrated the nail, Day 2” value was 3.2% and the “applied dose that penetrated the nail, Day 3” value worked out at 2.0%. In data set [2] (setting [6]), the “average penetration per day over Days 4, 5, and 6” value is 13.1%; the “penetration by Day 7” value is “approximately 26%”. Also, the “average penetration per day at Days 7-10” value in data set [2] (10 µL daily, 26 °C, RP-HPLC) is 26.1%. Further, the “applied dose that penetrated the nail on Days 7-10” value in data set [2] (Ppdef1 1%) is reported as “Greater than 20%”. In data set [2] (daily application of 10 µL of a 1% solution for 10 days), the “amount passed through the nail” value is “more than 150 µg”.
